The values that follow come from PMC9583845, “Characterization of the chicken melanocortin 5 receptor and its potential role in regulating hepatic glucolipid metabolism” (Frontiers in Physiology, 2022).

The subject of assay [1] is chicken MC4R. More on the design: method as in Zhang et al., 2017; Thomas et al., 2018. To be noted: ref Zhang et al., 2017; Thomas et al., 2018; cited from earlier work.
Assay [2] has as its system CREB phosphorylation (cMC5R). Put plainly: CREB phosphorylation, western blot, CHO cells expressing cMC5R. To be noted: 10 nM, 10 min; p-CREB normalized by total CREB; three independent experiments; Figure 2D. The format is cell-based, chicken. Here is the method:
To investigate whether the activation of cMC5R can enhance CREB phosphorylation, 100 ng of cMC5R expression plasmid, or an empty pcDNA3.1 (+) vector, was transfected into CHO cells cultured in a 24-well plate (Nunc) using jetPRIME transfection reagent (Polyplus Transfection). After 24 h transfection, ACTH (10 nM) or α-MSH (10 nM) was added to treat the cells for 10 min. Then the whole-cell lysates were used to examine the level of phosphorylated CREB using western blot. The level of total CREB protein was also examined and used as internal controls in each experiment. The phosphorylated CREB (p-CREB) and total CREB levels were quantified by densitometric analysis with ImageJ software. Relative optical densities of p-CREB normalized by CREB levels compared to the densities in the absence of ACTH (or α-MSH) are shown as relative p-CREB/CREB expression (fold changes).
For orientation: In western blotting, separated proteins are transferred to a membrane and probed.

In assay [3] the test system is primary chicken hepatocytes. Put plainly: Triglyceride content, primary chicken hepatocytes. It is filed as cell-based. To be noted: 24 h, normalized to protein, Figure 7E. How it is done:
To evaluate the effect of ACTH1-39 on chicken liver, the chicken hepatocytes were prepared and maintained as a monolayer culture. Briefly, one-month-old male chicken hepatocytes were isolated by perfusion of a liver with Ca^2+-free KRB buffer to remove blood cells, and being digested with 0.25% collagenase-I for 10 min. Hepatocytes were obtained following filtering and washing using M199 medium. Then the hepatocytes were plated in a Corning CellBIND 48-well microplate (Corning, NY, cat. no.3338) with M199 medium containing 100 U/ml penicillin and […] streptomycin (Gibco), 5 μg/ml bovine insulin (Sigma), and 5% FBS at 37°C in a 5% CO2 atmosphere. To adhere to the wall, the cells were incubated on the 48-well plate for 4 h.
For measurement of triglyceride content, after treated with ACTH1-39 for 24 h, hepatocytes were harvested and triglyceride (TG) content was analyzed using a commercial triglyceride content assay kit (Applygen, Beijing, China, catalog no. E1013). Results were normalized to the protein content of each sample, as determined using a BCA assay kit (Beyotime Institute of Biotechnology, China, catalog no. P0010).

The target in assay [4] is chicken MC5R + MRAP1 (Gallus gallus, UniProt O73671). Put plainly: pGL3-CRE-luciferase reporter assay, CHO cells co-expressing MC5R and cMRAP1. The format is cell-based. To be noted: for effect of MRAP1 co-expression on sensitivity of MC5R: vs MC5R expressed alone. How it is done:
The expression plasmids encoding MC5R, MRAP1 and MRAP2 were established by cloning their entire open reading frame (ORF) into the pcDNA3.1 (+) expression vector (Invitrogen).
The cells were then transfected with a mixture containing 700 ng pGL3-CRE-Luciferase reporter construct, 200 ng of receptor expression plasmid (or empty pcDNA3.1 vector as a negative control), 20 ng of pRL-TK construct (containing a Renilla luciferase gene, used as an internal control), and 2 μl jetPRIME transfection reagent (Polyplus Transfection, Illkirch, France) in 200 μL buffer. […] After removal of the medium from the 96-well plate, the cells were treated with 100 μl ligand-containing medium (or ligand-free medium) for 6 h. Finally, CHO cells were lysed with 1 × passive lysis buffer for luciferase assay (Promega) and the luciferase activity of the cell lysate was measured by a Multimode Microplate Reader (TriStar LB941, EG&G Berthold, Germany) according to the manufacturer’s instruction.
All statistical analysis was performed using GraphPad Prism 9 (Graph Pad Software Inc., San Diego, CA). The dose-response curves were constructed using nonlinear regression models. Student’s test was used to compare two groups, for more than two groups one-way ANOVA was performed followed by Dunnett’s test. To validate our results, all in-vitro experiments were repeated three times, and representative data are reported.
On the technique in general: A reporter such as luciferase makes a cellular process visible.

chicken MC5R + MRAP1, sequence (O73671 1-325): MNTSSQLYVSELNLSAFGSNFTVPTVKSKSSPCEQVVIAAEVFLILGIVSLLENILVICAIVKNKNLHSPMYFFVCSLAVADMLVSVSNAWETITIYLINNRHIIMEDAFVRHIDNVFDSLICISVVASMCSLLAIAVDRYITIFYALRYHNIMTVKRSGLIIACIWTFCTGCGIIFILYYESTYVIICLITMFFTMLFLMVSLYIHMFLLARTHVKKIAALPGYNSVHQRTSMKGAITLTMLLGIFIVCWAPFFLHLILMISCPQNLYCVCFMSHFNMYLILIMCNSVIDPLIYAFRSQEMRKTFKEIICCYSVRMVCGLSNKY

As usually defined, the EC50 is the concentration giving half of the maximal effect. For “H-SYSMEHFRWGKPVGRKRRPIKVYPNGVDEESAESYPMEF-OH [ACTH1-39]”, the “activation of chicken MC4R” value in assay [1] was “activated by both α-MSH and ACTH”. The CREB phosphorylation entry in assay [2] is given as “significantly increased”. Also, the “triglyceride (TG) contents” value is reported as “decreased triglyceride contents” in assay [3] and “prominently decreased triglyceride (TG) contents” in assay [3] (listed as ACTH). For the same substance, the EC50 in assay [4] (Table 1 / Figure 3, co-expressed with cMRAP1, 6 h, pGL3-CRE-luciferase, mean ± SEM of at least three independent experiments (figure: four replicates)) amounted to 2.12 ± 0.37 nM. In addition, the results for the “effect of MRAP1 co-expression on sensitivity of MC5R” value in assay [4] and in assay [4] (listed as ACTH) were “did not affect the sensitivity of cMC5R to ACTH1-39” and “no effect on the sensitivity of chicken MC5R for ACTH”, respectively.
